According to ChEMBL document CHEMBL1938273, “Design, synthesis and in vitro evaluation of novel bivalent S-adenosylmethionine analogues” (Bioorg Med Chem Lett, 2012):

Tests used:
[1] = target: T1, Met repressor (Escherichia coli) (UniProt C3SIU2); assay: Binding affinity to Escherichia coli metJ assessed as protein dimer-DNA complex formation using F-metC operator DNA by fluorescence anisotropy relative to 4-((((2R,3S,4R,5R)-5-(6-amino-9H-purin-9-yl)-3,4-dihydroxy-tetrahydrofuran-2-yl)methyl)(methyl)amino)-N-propylbutanamide
T1 sequence (whole entry): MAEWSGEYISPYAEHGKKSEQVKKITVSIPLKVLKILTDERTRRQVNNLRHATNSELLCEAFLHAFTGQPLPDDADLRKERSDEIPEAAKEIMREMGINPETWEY

[2] = target: T1, Met repressor (Escherichia coli); assay: Binding affinity to Escherichia coli metJ assessed as protein dimer-DNA complex formation using F-metC operator DNA by fluorescence anisotropy relative to 5'-[{(3''S)-4''-Benzylamino-3''-amino-4''-oxobutyl}dimethylamino]-5'-deoxyadenosine iodide ditrifluoroacetic acid salt
[3] = target: T2, Met repressor (Escherichia coli, UniProt C3SIU2); assay: Binding affinity to Escherichia coli metJ in presence of operator DNA complex by filter binding study
T2 sequence (C3SIU2 whole entry): T1 sequence (whole entry)

| SMILES | fold change (FC) [1] | fold change (FC) [2] | other results |
| --- | --- | --- | --- |
| CN(CCCC(=O)NCCCCn1nnc2c1CCCCCC2OCCNC(=O)CCCN(C)C[C@H]1O[C@@H](n2cnc3c(N)ncnc32)[C@H](O)[C@@H]1O)C[C@H]1O[C@@H](n2cnc3c(N)ncnc32)[C@H](O)[C@@H]1O (stereo partly specified) | 13 |  |  |
| C[N+](C)(CC[C@H](N)C(=O)NCc1ccc(CNC(=O)[C@@H](N)CC[N+](C)(C)C[C@H]2O[C@@H](n3cnc4c(N)ncnc43)[C@H](O)[C@@H]2O)cc1)C[C@H]1O[C@@H](n2cnc3c(N)ncnc32)[C@H](O)[C@@H]1O (mixture of isomers) |  | 2.4 |  |
| C[S+](CC[C@H](N)C(=O)[O-])C[C@H]1O[C@@H](n2cnc3c(N)ncnc32)[C@H](O)[C@@H]1O (stereo partly specified) [ADEMETIONINE] |  |  | Kd [3]: 4 nM |

The next lines start with results.

| fold change (FC) [1] | fold change (FC) [2] | SMILES | other results |
| --- | --- | --- | --- |
| 21 |  | CN(CCCC(=O)NCCCCCCNC(=O)CCCN(C)C[C@H]1O[C@@H](n2cnc3c(N)ncnc32)[C@H](O)[C@@H]1O)C[C@H]1O[C@@H](n2cnc3c(N)ncnc32)[C@H](O)[C@@H]1O |  |
| 9.1 |  | CN(CCCC(=O)NCCOC1CCCCCc2c1nnn2CCNC(=O)CCCN(C)C[C@H]1O[C@@H](n2cnc3c(N)ncnc32)[C@H](O)[C@@H]1O)C[C@H]1O[C@@H](n2cnc3c(N)ncnc32)[C@H](O)[C@@H]1O (mixture of isomers) |  |
|  | 3.6 | C[N+](C)(CC[C@H](N)C(=O)NCc1cccc(CNC(=O)[C@@H](N)CC[N+](C)(C)C[C@H]2O[C@@H](n3cnc4c(N)ncnc43)[C@H](O)[C@@H]2O)c1)C[C@H]1O[C@@H](n2cnc3c(N)ncnc32)[C@H](O)[C@@H]1O (mixture of isomers) |  |
